Experimental data as given in US10344025B2, “GLS1 inhibitors for treating disease” (Board of Regents, The University of Texas System, priority 2014, dated 2019).

The compounds below were run on A549 cells (assay: Proliferation Assay (A549 viability, Cell Titer Fluor, 72 hours)). Details: Homo sapiens, A549, 72 h.
Type: cell-based
Method: A549 cells were routinely maintained in RPMI 1640 media (Gibco catalog number 11875-093) supplemented with 10% dialyzed fetal bovine serum using a humidified incubator (37° C., 5% CO2 and ambient O2). In preparation for the viability assay, cells were inoculated into 384-well black CulturPlates (Perkin Elmer) at a density of 1000 cells/well in a volume of 40 uL. Following a 24-hour incubation at 37° C., 5% CO2 and ambient O2, cells were treated with compound (10 uL) in a final DMSO concentration of 0.5% (v/v). The microplates were then incubated for 72 hours (37° C., 5% CO2 and ambient O2). Cell Titer Fluor (Promega) was subsequently added (10 uL of 6× reagent) and mixed for 15 minutes at room temperature. The plates were then incubated for 30 minutes (37° C., 5% CO2 and ambient O2) and fluorescence was subsequently read on the Perkin Elmer Envision plate reader. IC50 values were calculated using a four-parameter logistic curve fit.
Non-limiting examples include the following compounds and pharmaceutically acceptable salts thereof. […] “ND” indicates no data.

SMILES | EC50 [nM]
CNC(=O)c1cn(CC(F)CCc2ccc(NC(=O)Cc3cc(C(F)(F)F)ccn3)nn2)nn1 (stereo not shown) [Example 248, 1-(2-fluoro-4-(6-(2-(4-(trifluoromethyl)pyridin-2-yl)acetamido)pyridazin-3-yl)butyl)-N-methyl-1H-1,2,3-triazole-4-carboxamide] | < 100
O=C(Cc1ccccc1)Nc1ccc(CCCCn2cc(C(=O)NCc3ccccc3)nn2)nn1 [Example 5, N-Benzyl-1-(4-(6-(2-phenylacetamido)pyridazin-3-yl)butyl)-1H-1,2,3-triazole-4-carboxamide] | < 100
CNC(=O)c1cn(CCCCc2ccc(NC(=O)Cc3ccc(Cl)nc3)nn2)nn1 [Example 544, 1-(4-{6-[2-(6-chloropyridin-3-yl)acetamido]pyridazin-3-yl}butyl)-N-methyl-1H-1,2,3-triazole-4-carboxamide] | 100 to 500
CC(C)CNC(=O)c1nnc(CCCCn2cc(C(=O)NCc3cccc(OC(F)(F)F)c3)nn2)s1 [Example 44, N-(2-methylpropyl)-5-{4-[4-({[3-(trifluoromethoxy)phenyl]methyl}carbamoyl)-1H-1,2,3-triazol-1-yl]butyl}-1,3,4-thiadiazole-2-carboxamide] | 100 to 500
O=C(NCc1ccccc1)c1cn(CCCCc2nnc(C(=O)NCc3cccc(OC(F)(F)F)c3)s2)nn1 [Example 39, 5-{4-[4-(benzylcarbamoyl)-1H-1,2,3-triazol-1-yl]butyl}-N-{[3-(trifluoromethoxy)phenyl]methyl}-1,3,4-thiadiazole-2-carboxamide] | 100 to 500
O=C(Cc1cccc(OC(F)(F)F)c1)Nc1ccc(CCCCn2cc(C(=O)NCc3ccccn3)nn2)nn1 [Example 529, N-(pyridin-2-ylmethyl)-1-[4-(6-{2-[3-(trifluoromethoxy)phenyl]acetamido}pyridazin-3-yl)butyl]-1H-1,2,3-triazole-4-carboxamide] | < 100
N#CCNC(=O)c1cn(CCCCc2ccc(NC(=O)Cc3cccc(OC(F)(F)F)c3)nn2)nn1 [Example 527, N-(cyanomethyl)-1-[4-(6-{2-[3-(trifluoromethoxy)phenyl]acetamido}pyridazin-3-yl)butyl]-1H-1,2,3-triazole-4-carboxamide] | < 100
CNC(=O)c1cn(CCCCc2ccc(NC(=O)Cc3ccccn3)nn2)nn1 [Example 167, N-methyl-1-(4-{6-[2-(pyridin-2-yl)acetamido]pyridazin-3-yl}butyl)-1H-1,2,3-triazole-4-carboxamide] | 100 to 500
O=C(Cc1cncc(OC2CC(F)(F)C2)c1)Nc1ccc(CCCCn2cc(C(=O)NCc3cc(C(F)(F)F)ccn3)nn2)nn1 [Example 230, 1-(4-(6-(2-(5-(3,3-difluorocyclobutoxy)pyridin-3-yl)acetamido)pyridazin-3-yl)butyl)-N-((4-(trifluoromethyl)pyridin-2-yl)methyl)-1H-1,2,3-triazole-4-carboxamide] | < 100
O=C(Cc1cncc(OC2CC(F)(F)C2)c1)Nc1ccc(CCCCn2cc(C(=O)NCc3ccccn3)nn2)nn1 [Example 231, 1-(4-(6-(2-(5-(3,3-difluorocyclobutoxy)pyridin-3-yl)acetamido)pyridazin-3-yl)butyl)-N-(pyridin-2-ylmethyl)-1H-1,2,3-triazole-4-carboxamide] | < 100
CNC(=O)c1cn(CCCCc2ccc(NC(=O)Cc3cc(-c4cccc(OC(F)(F)F)c4F)ccn3)nn2)nn1 [Example 607, 1-(4-(6-(2-(4-(2-fluoro-3-(trifluoromethoxy)phenyl)pyridin-2-yl)acetamido)pyridazin-3-yl)butyl)-N-methyl-1H-1,2,3-triazole-4-carboxamide] | < 100
O=C(Cc1ccccn1)Nc1ccc(CCCCn2cc(C(=O)NCc3cccc(OC(F)(F)F)c3)nn2)nn1 [Example 169, 1-(4-{6-[2-(pyridin-2-yl)acetamido]pyridazin-3-yl}butyl)-N-{[3-(trifluoromethoxy)phenyl]methyl}-1H-1,2,3-triazole-4-carboxamide] | < 100
CNC(=O)c1cn(C[C@H](F)CCc2ccc(NC(=O)Cc3cc(C(F)(F)F)cc(C)n3)nn2)nn1 [Example 268, (R)-1-(2-fluoro-4-(6-(2-(6-methyl-4-(trifluoromethyl)pyridin-2-yl)acetamido)pyridazin-3-yl)butyl)-N-methyl-1H-1,2,3-triazole-4-carboxamide] | < 100
CNC(=O)c1cn(CC(F)CCc2ccc(NC(=O)Cc3cc(C(F)(F)F)cc(C)n3)nn2)nn1 (stereo not shown) [Example 264, 1-(2-fluoro-4-(6-(2-(6-methyl-4-(trifluoromethyl)pyridin-2-yl)acetamido)pyridazin-3-yl)butyl)-N-methyl-1H-1,2,3-triazole-4-carboxamide] | < 100
CNC(=O)c1cn(C[C@H](F)CCc2ccc(NC(=O)Cc3cc(-c4cccc(OC(F)(F)F)c4)ccn3)nn2)nn1 [Example 255, (R)-1-(2-fluoro-4-(6-(2-(4-(3-(trifluoromethoxy)phenyl)pyridin-2-yl)acetamido)pyridazin-3-yl)butyl)-N-methyl-1H-1,2,3-triazole-4-carboxamide] | < 100
CNC(=O)c1cn(C[C@H](F)CCc2ccc(NC(=O)Cc3cc(OC4CC(F)(F)C4)ccn3)nn2)nn1 [Example 272, (R)-1-(4-(6-(2-(4-(3,3-difluorocyclobutoxy)pyridin-2-yl)acetamido)pyridazin-3-yl)-2-fluorobutyl)-N-methyl-1H-1,2,3-triazole-4-carboxamide] | < 100
CNC(=O)c1cn(CCCCc2ccc(NC(=O)Cc3cc(-c4cccc(OC(F)(F)F)c4)ccn3)nn2)nn1 [Example 192, N-methyl-1-(4-(6-(2-(4-(3-(trifluoromethoxy)phenyl)pyridin-2-yl)acetamido)pyridazin-3-yl)butyl)-1H-1,2,3-triazole-4-carboxamide] | < 100
O=C(NCc1cc(C2CC2)ccn1)c1cn(CCC(F)Cn2cc(C(=O)NCc3cccc(C4CC4)c3)nn2)nn1 (stereo not shown) [Example 134, 1-[4-(4-{[(3-cyclopropylphenyl)methyl]carbamoyl}-1H-1,2,3-triazol-1-yl)-3-fluorobutyl]-N-[(4-cyclopropylpyridin-2-yl)methyl]-1H-1,2,3-triazole-4-carboxamide] | < 100
CNC(=O)c1cn(CCCCc2ccc(NC(=O)Cc3cc(Cl)ccn3)nn2)nn1 [Example 191, 1-(4-{6-[2-(4-chloropyridin-2-yl)acetamido]pyridazin-3-yl}butyl)-N-methyl-1H-1,2,3-triazole-4-carboxamide] | 100 to 500
CNC(=O)c1cn(C[C@@H](F)CCc2ccc(NC(=O)Cc3cc(C(F)(F)F)ccn3)nn2)nn1 [Example 260, (S)-1-(2-fluoro-4-(6-(2-(4-(trifluoromethyl)pyridin-2-yl)acetamido)pyridazin-3-yl)butyl)-N-methyl-1H-1,2,3-triazole-4-carboxamide] | < 100
CC(C)NC(=O)c1cn(CCCCc2ccc(NC(=O)Cc3cccc(OC(F)(F)F)c3)nn2)nn1 [Example 526, N-(propan-2-yl)-1-[4-(6-{2-[3-(trifluoromethoxy)phenyl]acetamido}pyridazin-3-yl)butyl]-1H-1,2,3-triazole-4-carboxamide] | 500 to 5000
CNC(=O)c1cn(CCCCc2ccc(NC(=O)Cc3cc(C4CC4)ccn3)nn2)nn1 [Example 190, 1-(4-{6-[2-(4-cyclopropylpyridin-2-yl)acetamido]pyridazin-3-yl}butyl)-N-methyl-1H-1,2,3-triazole-4-carboxamide] | 100 to 500
